Tested on: H9-derived RPE cells
Details: increasing concentrations 10 μM, 25 µM and 50 μM in maturation medium, versus unsupplemented medium
Protocol: RPE pigmentation levels of cells at different stages of differentiation, but usually day 49 mature (d) RPE, could be analysed by a melanin content assay. […] A total of 4×10^5 RPE were added per well of a 96 well u bottom plate and centrifuged at 500×g for 3 minutes. Once the supernatant was removed, cells were resuspended in 100 μL of D-PBS and transferred to a 96 well tissue culture plate. RPE were centrifuged at 300×g for 3 minutes and absorbance was measured at 490 nm. Melanin content was calculated relative to the synthetic standard.

ferric ammonium citrate
melanogenesis (brightfield microscopy and melanin content assay): increasing levels of melanogenesis

Reference: patent US20260275281A1, “COMPOSITIONS AND METHODS FOR DIFFERENTIATING RPE CELLS” (STEMCELL TECHNOLOGIES CANADA INC., priority 2023, published 2026)
